{"source": "patent US6472369B1", "about": "“Anticancer compounds and methods” (The Regents of the University of Michigan, priority 1996, dated 2002)", "key": {"[1]": {"experiment": "Clotting of peptide-treated blood in vivo", "settings": "in vivo observation", "text": "In addition to using the PHSRN (SEQ ID NO:1) antagonists described above as anti-invasion chemotherapeutics, it is also contemplated that these antagonists be used as anti-thrombotics."}, "[2]": {"tested_on": "normal human mammary epithelial cells", "experiment": "SU-ECM invasion assay, normal human mammary epithelial cells", "type": "cell-based", "settings": "10% FCS, 100 ng per ml PHSRN, FIG. 5B", "procedure": "(§1) Adult Strongylocentrotus purpuratus sea urchins were obtained from Pacific BioMarine, and their embryos were cultured to the early pluteus stage in artificial sea water at 15° C. SU-ECM were prepared from them by treatment with nonionic detergent and strerilized by dilution in the appropriate media. […]\n(§2) Invasion assays were coded and scored blindly by microscopic examination under phase contrast at 200- and 400-fold magnification. Each cell contacting an SU-ECM was scored for its position relative to the exterior or interior surfaces. […] The minimum viability of the cells in each assay was always ascertained at the time of assay by determining the fraction of spread, adherent cells on the bottom of each well scored.\n(§3) An invasion frequency is defined as the fraction of cells in contact with basement membranes which were located in their interiors at the time of assay. […] Invasion frequencies were determined multiple times for each cell type assayed. For each type of cell assayed the mean and standard deviation of the invasion frequencies were calculated. […]"}, "[3]": {"tested_on": "MatLyLu (MLL) tumors", "experiment": "MLL prostate tumor growth and metastasis in rats, treatment begun after 24 hours (Example 13)", "type": "in vivo, Copenhagen rats", "procedure": "In the first part of this example, 20 Copenhagen rats were injected with 500,000 MatLyuLu (MLL) cells subcutaneously in the thigh. To more closely approximate a real clinical situation, PHSCN (SEQ ID NO:86) peptide treatment of 10 of these rats was initiated after 24 hours, instead of immediately. The 10 treated rats (MLL/PHSCN (SEQ ID NO:86)) received a total of 5 i.v. injections of 1 mg of the PHSCN (SEQ ID NO:86) peptide through the tail vein over two weeks. Tumor sizes were measured with calipers on day 14, and the tumors in the untreated rats were removed. Since the injected tumors in the MLL/PHSCN (SEQ ID NO:86) rats were still small, they were retained in the rats for another 7 to 9 days following the last PHSCN (SEQ ID NO:86) injection. At this time, their sizes were all greater than 2 cm, and they were also removed.\nIn the second part of this example, the MLL/PHSCN (SEQ ID NO:86) rats received 2 more i.v. doses of the PHSCN (SEQ ID NO:86) peptide prior to sacrifice. Ten days after the sizes of the injected primary tumors were determined, all the rats in the two groups (MLL only and MLL/PHSCN (SEQ ID NO:86)) were sacrificed, and the number of lung metastases was determined at 7.5-fold magnification.\nThe 20 rats described in parts one and two of this example were also examined for metastatic tissues in […]. All of these metastases were dissected and weighed. FIG. 10C plots the mean masses of intraperitoneal metastases (grams) for the two groups of 10 rats. […] This may be due to the anti-angiogenic effect of the PHSCN (SEQ ID NO:86) peptide, as described in part one of this example. In this manner, the PHSCN (SEQ ID NO:86) peptide maybe an effective anti-metastatic, growth-inhibiting chemotherapeutic agent for use in the treatment of cancer."}, "[4]": {"tested_on": "normal human prostate epithelial cells", "experiment": "SU-ECM invasion assay, normal human prostate epithelial cells", "type": "cell-based", "settings": "10% FCS, 100 ng per ml PHSRN, FIG. 6B", "procedure": "as §1, §2, §3"}, "[5]": {"tested_on": "metastatic DU-145 prostate cancer cells", "experiment": "SU-ECM invasion assay, DU-145 prostate cancer cells", "type": "cell-based, human", "settings": "for inhibition of serum-induced invasion of SU-ECM: DU-145, 10% serum, FIG. 6A; for inhibition of PHSRN-induced invasion of SU-ECM: DU-145, serum-free medium, 100 ng per ml PHSRN, FIG. 6B"}}}
{"substance": "Pro-His-Ser-Cys-Asn (PHSCN)", "values": [{"measurement": "clotting of peptide-treated blood", "setting": "[1]", "result": "clot very slowly"}, {"measurement": "inhibition of PHSRN-induced invasion of SU-ECM", "setting": "[2]; higher concentrations", "result": "almost complete inhibition"}, {"measurement": "inhibition of PHSRN-induced invasion of SU-ECM", "setting": "[2]; low concentrations", "result": "substantial inhibitory affect"}, {"measurement": "tumor size", "setting": "[3]; 7 to 9 days following the last PHSCN injection", "result": "greater than 2 cm"}, {"measurement": "mean numbers of lung metastases", "setting": "[3]; compared to untreated rats, 7.5-fold magnification, ten days after tumor sizing, FIG. 10B", "result": "significant reduction"}, {"measurement": "mean masses of intraperitoneal (lymphatic) metastases", "setting": "[3]; compared to untreated rats, FIG. 10C", "result": "significant reduction"}, {"measurement": "growth of rat prostate cancer tumors (tumor size, calipers)", "setting": "[3]; day 14, 5 i.v. injections of 1 mg over two weeks, started after 24 hours, FIG. 10A", "result": "substantially slows the growth"}, {"measurement": "inhibition of PHSRN-induced invasion of SU-ECM", "setting": "[4]; higher concentrations", "result": "almost complete inhibition"}, {"measurement": "inhibition of PHSRN-induced invasion of SU-ECM", "setting": "[4]; low concentrations", "result": "substantial inhibitory affect"}, {"measurement": "inhibition of serum-induced invasion of SU-ECM", "setting": "[5]; relatively high concentrations", "result": "complete inhibition"}, {"measurement": "inhibition of serum-induced invasion of SU-ECM", "setting": "[5]; relatively low concentrations", "result": "substantial inhibitory affect"}, {"measurement": "inhibition of PHSRN-induced invasion of SU-ECM", "setting": "[5]; higher concentrations", "result": "almost complete inhibition"}, {"measurement": "inhibition of PHSRN-induced invasion of SU-ECM", "setting": "[5]; low concentrations", "result": "substantial inhibitory affect"}]}
